Source: the supplement of paper PMC10307832

Legend:
Assay in all cases: relative viability (nuclei count vs DMSO), 5 days (fraction); higher = more cells survive
[1] = compound: NC(=O)c1ccc(N(C(N)=O)c2c(F)cccc2F)nc1-c1ccc(F)cc1F [VX-702] + N=C(N)NC(=N)NCCc1ccccc1 [Phenformin] (partner 250 µM)
Procedure, shortened: (§1)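 Medians of duplicate plates are given as relative viability. That measure is the nuclei count in treated wells divided by the count in vehicle wells. Counts were taken on 4× images of lung cancer cell lines in 1536-well plates, 5 days after pin-tool dosing the day after seeding with one drug alone or a fixed anchor-drug dose plus five library-drug doses (not always all listed) in √10 steps.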

[2] = compound: CC(C)(C)c1nc(-c2cccc(NS(=O)(=O)c3c(F)cccc3F)c2F)c(-c2ccnc(N)n2)s1 [Dabrafenib] + Nc1nc2[nH]cc(CCc3ccc(C(=O)N[C@@H](CCC(=O)O)C(=O)O)cc3)c2c(=O)[nH]1 [Pemetrexed] (partner 0.2 µM)
Procedure, shortened: as §1

[3] = compound: CC(C)(C)c1nc(-c2cccc(NS(=O)(=O)c3c(F)cccc3F)c2F)c(-c2ccnc(N)n2)s1 [Dabrafenib] + CC1(C)CCC(c2ccc(Cl)cc2)=C(CN2CCN(c3ccc(C(=O)NS(=O)(=O)c4ccc(N[C@H](CCN5CCOCC5)CSc5ccccc5)c(S(=O)(=O)C(F)(F)F)c4)cc3)CC2)C1 [Navitoclax] (partner 0.5 µM)
Procedure, shortened: as §1

[4] = compound: CC(C)(C)c1nc(-c2cccc(NS(=O)(=O)c3c(F)cccc3F)c2F)c(-c2ccnc(N)n2)s1 [Dabrafenib] + CC(C)C[C@H](NC(=O)[C@H](Cc1ccccc1)NC(=O)c1cnccn1)B(O)O [Bortezomib] (partner 0.002 µM)
Procedure, shortened: as §1

Cell Line	relative viability ([1]; first compound 0.02 µM)	relative viability ([1]; first compound 0.2 µM)	relative viability ([1]; first compound 0.6325 µM)	relative viability ([1]; first compound 2 µM)	relative viability ([2]; first compound 0.003 µM)	relative viability ([2]; first compound 0.009487 µM)	relative viability ([2]; first compound 0.03 µM)	relative viability ([2]; first compound 0.09487 µM)	relative viability ([2]; first compound 0.3 µM)	relative viability ([3]; first compound 0.003 µM)	relative viability ([3]; first compound 0.009487 µM)	relative viability ([3]; first compound 0.03 µM)	relative viability ([3]; first compound 0.09487 µM)	relative viability ([3]; first compound 0.3 µM)	relative viability ([4]; first compound 0.003 µM)	relative viability ([4]; first compound 0.009487 µM)	relative viability ([4]; first compound 0.03 µM)	relative viability ([4]; first compound 0.09487 µM)	relative viability ([4]; first compound 0.3 µM)
NCI-H2126	0.545	0.521	0.51	0.507	0.624	0.808	0.623	0.706	0.756	0.779	0.887	0.823	0.866	0.956	1.1	1.1	1.12	1.13	1.15
LCLC-97TM1	0.439	0.434	0.43	0.482	–	0.198	0.198	0.124	0.139	–	0.368	0.536	–	0.427	–	0.643	0.782	0.162	0.469
NCI-H460	0.532	0.551	0.608	0.373	0.0599	0.0868	0.0634	0.0648	0.0684	1.17	1.14	1.26	0.998	1.06	1.28	1.06	1.14	1.05	1.08
NCI-H1650	0.542	0.625	0.411	0.468	0.364	0.391	0.389	0.389	0.419	1.25	1.44	1.21	1.35	1.42	0.183	0.214	0.24	0.177	0.217
NCI-H1993	0.498	0.493	0.518	0.562	0.575	0.571	0.619	0.55	0.669	0.834	1.04	0.902	1.08	1.17	1.2	1.46	1.31	1.24	1.7
HCC-78	0.63	0.823	0.689	0.676	–	0.935	0.91	0.879	0.795	–	0.908	0.702	0.795	0.869	–	0.655	0.543	0.4	0.513
HCC-44	0.191	0.286	0.191	0.225	0.61	0.58	0.697	0.598	0.651	0.939	1.04	0.939	0.843	1.04	0.884	0.854	0.935	0.853	0.964
LXF-289	0.538	0.534	0.5	0.527	0.751	0.872	0.965	0.813	1.08	0.95	0.931	1.04	0.934	0.998	0.949	1.01	1.18	0.969	1.13
201T	0.43	0.457	0.453	0.434	0.332	0.352	0.332	0.307	0.287	1.19	1.18	1.15	1.15	1.26	1.08	1.07	1.06	1.11	1.1
NCI-H2023	0.407	0.469	0.413	0.559	0.229	0.247	0.207	0.211	0.255	1.06	1.03	0.995	0.915	1.05	0.78	1.09	1.04	0.977	1.02
NCI-H1437	0.326	0.352	0.31	0.313	0.338	0.304	0.318	0.324	0.321	1.14	1.02	1.14	1.07	1.1	0.299	0.529	0.518	0.534	0.516
HCC-827	0.417	0.457	0.423	0.188	0.224	0.288	0.243	–	0.281	0.997	1.02	0.97	1.01	1.01	0.778	1.03	1.06	–	0.996
HARA	0.433	0.42	0.599	0.569	–	0.221	0.252	0.238	0.247	1.14	1.15	1.07	1.07	1.12	1.17	1.16	1	1.06	1.27
NCI-H838	0.607	0.609	0.557	0.669	0.264	0.252	0.239	0.239	0.245	1.22	1.29	1.13	1.11	1.28	0.74	0.973	0.417	0.715	1.09
NCI-H2085	0.718	0.728	0.704	0.702	0.707	1.05	0.861	0.864	1.08	1.15	1.14	1.16	1.1	1.09	1.03	1.13	0.896	0.976	1.04
COR-L23	0.484	0.492	0.437	0.494	0.18	0.213	0.193	0.209	0.196	0.948	0.997	0.908	0.927	0.894	1.06	1.15	0.91	0.898	0.915
NCI-H322M	0.744	0.757	0.742	0.915	–	0.711	–	0.602	0.572	–	1.38	–	1.12	1.17	–	1.26	–	1.3	1.34
NCI-H1915	0.366	0.374	0.363	0.384	0.507	0.451	0.457	0.272	0.372	0.777	0.768	0.733	0.732	0.746	0.975	0.99	0.899	0.584	0.502

Cell Line	relative viability ([1]; first compound 0.02 µM)	relative viability ([1]; first compound 0.2 µM)	relative viability ([1]; first compound 0.6325 µM)	relative viability ([1]; first compound 2 µM)	relative viability ([2]; first compound 0.003 µM)	relative viability ([2]; first compound 0.009487 µM)	relative viability ([2]; first compound 0.03 µM)	relative viability ([2]; first compound 0.09487 µM)	relative viability ([2]; first compound 0.3 µM)	relative viability ([3]; first compound 0.003 µM)	relative viability ([3]; first compound 0.009487 µM)	relative viability ([3]; first compound 0.03 µM)	relative viability ([3]; first compound 0.09487 µM)	relative viability ([3]; first compound 0.3 µM)	relative viability ([4]; first compound 0.003 µM)	relative viability ([4]; first compound 0.009487 µM)	relative viability ([4]; first compound 0.03 µM)	relative viability ([4]; first compound 0.09487 µM)	relative viability ([4]; first compound 0.3 µM)
EPLC-272H	0.303	0.302	0.381	0.26	0.273	0.271	0.304	0.262	0.488	–	1.39	0.997	0.875	0.824	–	0.945	0.954	0.631	1.18
NCI-H1734	0.403	0.355	0.369	0.298	–	0.417	0.397	0.421	0.411	–	0.835	0.703	0.766	0.85	–	0.936	0.549	0.757	0.828
NCI-H2405	0.457	0.437	0.385	0.401	–	0.967	0.687	0.878	0.839	–	0.697	–	0.734	0.73	–	0.91	0.766	0.867	0.959
NCI-H1666	0.562	–	0.563	0.633	0.787	0.864	0.877	0.97	0.865	0.929	–	1.1	0.863	0.998	0.806	–	0.957	0.859	0.814
CAL-12T	0.699	0.55	0.609	0.632	1.21	1.44	1.18	1.08	1.14	1.28	1.32	1.4	1.3	1.27	0.623	1.18	1.06	1.12	1.08
NCI-H2347	0.574	–	0.395	0.425	–	0.445	0.362	0.399	0.405	0.536	0.92	0.733	0.766	0.752	–	1.2	–	–	0.84
A-427	0.306	0.303	0.395	0.28	0.891	1.04	0.828	0.803	0.987	–	0.954	0.91	0.803	0.888	–	0.969	0.939	0.821	0.987
NCI-H520	0.67	0.648	0.525	0.535	0.697	0.6	0.625	0.669	0.652	1.3	1.11	0.985	1.07	0.936	0.584	0.59	0.476	0.544	0.731
NCI-H647	0.487	0.654	0.46	0.728	0.187	0.186	0.167	0.159	0.16	–	1.07	–	1.08	1.11	–	0.778	0.789	1.19	1.03
LU99A	0.957	0.851	0.792	0.643	0.25	0.192	0.181	0.161	0.183	0.928	0.722	0.792	0.896	0.753	1.16	0.99	1.15	1.1	0.887
BEN	0.263	0.252	0.228	0.236	–	0.764	–	0.846	0.908	–	0.0803	–	0.0599	0.0801	–	0.936	–	0.696	0.996
EKVX	0.235	0.189	0.224	0.214	–	0.484	0.419	0.408	0.395	0.778	1.01	0.961	0.894	1.11	0.77	1.1	0.969	0.891	1.12
SK-LU-1	0.636	0.508	0.524	0.531	–	1.06	0.898	0.865	0.715	0.557	0.789	0.806	0.709	0.567	–	1.12	–	0.607	0.871
COR-L 105	0.529	0.478	0.448	0.459	1	1.2	0.799	1.19	1.29	0.73	0.856	0.649	0.875	0.744	0.721	0.843	0.69	0.738	0.895
SW 1573	0.364	0.261	0.282	0.327	0.79	0.9	0.792	0.777	0.782	1.13	1.04	0.998	0.755	1.06	1.11	1.16	1.13	0.996	1.17
NCI-H2087	0.481	0.445	0.422	0.528	–	0.64	0.662	0.695	0.643	0.947	0.881	0.893	0.842	0.892	0.814	0.752	0.564	0.648	0.761
NCI-H1975	0.432	0.413	0.413	0.418	0.304	0.282	0.272	0.28	0.292	1.2	1.11	0.954	1	1.18	0.333	0.432	0.374	0.49	0.429
HCC-15	0.536	0.441	0.525	0.557	0.221	0.225	0.227	0.212	0.215	0.728	0.787	0.734	0.694	0.833	1.06	0.971	0.997	0.891	0.814
